The target in the assay is human full length recombinant Mps-1 kinase (Homo sapiens (Human), UniProt P33981). As to the kind of experiment: Mps-1 Kinase Assay (TR-FRET). The assay is classed as biochemical. Particulars: 10 μM ATP, 1 μM biotinylated peptide substrate, 60 min at 22° C., read-out: Mps-1 Inhibition, IC50 in M. The essentials:
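GST-tagged full-length recombinant Mps-1 at about 1 nM final, adjusted per lot for linear range, phosphorylated a biotinylated peptide. Product bound Eu-anti-phospho(Ser/Thr) antibody over 1 h at 22° C and was read by TR-FRET to streptavidin-XLent. Compounds scored for kinase inhibition.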
A general note: TR-FRET usually uses a lanthanide donor and a delayed reading to cut background.
Chain of human full length recombinant Mps-1 kinase (P33981 whole entry): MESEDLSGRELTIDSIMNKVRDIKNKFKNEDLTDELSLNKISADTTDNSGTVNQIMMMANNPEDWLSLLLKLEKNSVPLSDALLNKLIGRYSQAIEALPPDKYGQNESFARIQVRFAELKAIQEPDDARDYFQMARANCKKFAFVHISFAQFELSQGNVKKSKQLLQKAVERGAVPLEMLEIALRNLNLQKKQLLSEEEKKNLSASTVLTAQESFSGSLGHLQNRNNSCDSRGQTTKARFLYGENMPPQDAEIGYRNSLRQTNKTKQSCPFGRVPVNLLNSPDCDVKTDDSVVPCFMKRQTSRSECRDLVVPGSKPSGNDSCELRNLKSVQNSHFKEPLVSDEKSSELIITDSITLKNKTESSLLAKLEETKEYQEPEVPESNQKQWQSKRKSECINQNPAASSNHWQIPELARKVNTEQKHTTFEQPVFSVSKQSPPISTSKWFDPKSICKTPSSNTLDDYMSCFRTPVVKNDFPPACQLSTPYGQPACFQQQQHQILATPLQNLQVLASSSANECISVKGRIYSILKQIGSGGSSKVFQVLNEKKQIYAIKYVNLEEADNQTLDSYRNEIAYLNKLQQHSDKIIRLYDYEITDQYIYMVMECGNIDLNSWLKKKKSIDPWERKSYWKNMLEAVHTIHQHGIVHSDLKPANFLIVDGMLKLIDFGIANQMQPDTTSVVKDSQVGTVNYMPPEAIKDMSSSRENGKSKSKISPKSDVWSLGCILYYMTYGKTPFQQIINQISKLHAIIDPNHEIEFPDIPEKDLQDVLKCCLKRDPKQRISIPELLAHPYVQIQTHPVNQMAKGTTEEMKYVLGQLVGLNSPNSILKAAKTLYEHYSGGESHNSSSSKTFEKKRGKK
What is called IC50 is the concentration at which inhibition is half-maximal. For `COc1cc(C(=O)N2CCOCC2)ccc1Nc1nc2ccc(-c3ccc(C(=O)NCc4ccc(C)cc4)cc3)cn2n1` [Example 05.02, 4-(2-{[2-methoxy-4-(morpholin-4-ylcarbonyl)phenyl]amino}[,2]-triazolo[1,5-a]pyridin-6-yl)-N-(4-methylbenzyl)benzamide], the concentration for half-maximal inhibition (IC50) is at most 1 nM.
The result for `COc1cc(C(=O)N2CCOCC2)ccc1Nc1nc2ccc(-c3ccc(C(=O)NCc4ccc(F)cc4)c(F)c3)cn2n1` [Example 06.01, 2-fluoro-N-(4-fluorobenzyl)-4-(2-{[2-methoxy-4-(morpholin-4-ylcarbonyl)phenyl]amino}[,2]-triazolo[1,5-a]pyridin-6-yl)benzamide] reads at most 1 nM; that for `COc1cc(CN2CCOCC2)ccc1Nc1nc2ccc(-c3ccc(C(=O)NCc4ccc(F)cc4)c(F)c3)cn2n1` [Example 06.02, 2-fluoro-N-(4-fluorobenzyl)-4-(2-{[2-methoxy-4-(morpholin-4-ylmethyl)phenyl]amino}[,2]-triazolo[1,5-a]pyridin-6-yl)benzamide], at most 1 nM; that for `COc1cc(C(=O)N2CCOCC2)ccc1Nc1nc2ccc(-c3ccc(C(=O)NCc4ccc(F)cc4)c(C)c3)cn2n1` [Example 07.01, N-(4-fluorobenzyl)-4-(2-{[2-methoxy-4-(morpholin-4-ylcarbonyl)phenyl]amino}[,2]-triazolo[1,5-a]pyridin-6-yl)-2-methylbenzamide], at most 1 nM.
The result for `COc1cc(N2CCOC2=O)ccc1Nc1nc2ccc(-c3ccc(C(=O)NCc4ccc(F)cc4)c(C)c3)cn2n1` [Example 07.02, N-(4-fluorobenzyl)-4-(2-{[2-methoxy-4-(2-oxo-1,3-oxazolidin-3-yl)phenyl]amino}[,2]-triazolo[1,5-a]pyridin-6-yl)-2-methylbenzamide] reads 1.1 nM.
The result for `COc1cc(C(=O)N2CCOCC2)ccc1Nc1nc2ccc(-c3ccc(C(=O)NCc4ccc(F)cc4)c(Cl)c3)cn2n1` [Example 08.01, 2-chloro-N-(4-fluorobenzyl)-4-(2-{[2-methoxy-4-(morpholin-4-ylcarbonyl)phenyl]amino}[,2]-triazolo[1,5-a]pyridin-6-yl)benzamide] reads at most 1 nM; that for `COc1cc(C(=O)N2CCOCC2)ccc1Nc1nc2ccc(-c3ccc(C(=O)NCc4ccc(F)cc4)c(OC)c3)cn2n1` [Example 09.01, N-(4-fluorobenzyl)-2-methoxy-4-(2-{[2-methoxy-4-(morpholin-4-ylcarbonyl)phenyl]amino}[,2]-triazolo[1,5-a]pyridin-6-yl)benzamide], at most 1 nM; that for `COc1cc(C(=O)N2CCOCC2)ccc1Nc1nc2ccc(-c3ccc(NC(=O)Cc4ccc(F)cc4)c(F)c3)cn2n1` [Example 10.01, N-[2-fluoro-4-(2-{[2-methoxy-4-(morpholin-4-ylcarbonyl)phenyl]amino}[,2]-triazolo[1,5-a]pyridin-6-yl)phenyl]-2-(4-fluorophenyl)acetamide], at most 1 nM.
Regarding `COc1cc(C(=O)N2CCOCC2)ccc1Nc1nc2ccc(-c3ccc(NC(=O)Cc4ccc(F)cc4)nc3)cn2n1` [Example 11.01, 2-(4-fluorophenyl)-N-[5-(2-{[2-methoxy-4-(morpholin-4-ylcarbonyl)phenyl]amino}[,2]triazolo[1,5-a]pyridin-6-yl)pyridin-2-yl]acetamide], the 50% inhibitory concentration (IC50) was determined as 1.62 nM.
The same measure for `CCOc1cc(C(=O)N2CCOCC2)ccc1Nc1nc2ccc(-c3ccc(NC(=O)Cc4ccc(F)cc4)nc3)cn2n1` [Example 11.02, N-[5-(2-{[2-ethoxy-4-(morpholin-4-ylcarbonyl)phenyl]amino}[,2]triazolo[1,5-a]pyridin-6-yl)pyridin-2-yl]-2-(4-fluorophenyl)acetamide]: at most 1 nM; for `COc1cc(N2CCOC2=O)ccc1Nc1nc2ccc(-c3ccc(C(=O)NCc4ccc(F)cc4F)c(C)c3)cn2n1` [Example 12.01, N-(2,4-difluorobenzyl)-4-(2-{[2-methoxy-4-(2-oxo-1,3-oxazolidin-3-yl)phenyl]amino}[,2]triazolo[1,5-a]pyridin-6-yl)-2-methylbenzamide]: at most 1 nM.

These data come from patent publication US9555022B2, “Substituted triazolopyridines” (Bayer Intellectual Property GmbH, priority 2010, dated 2017).
